From US11103512B2, “Crystalline form of (S)-[2-chloro-4-fluoro-5-(7-morpholin-4-yl-quinazolin-4-yl)phenyl]-(6-methoxy-pyridazin-3-yl)-methanol” (Merck Patent GmbH, priority 2017, dated 2021)
≈ marks a conversion by molar mass, not a printed value.

Assays:
[1] = test system: DNA-PK autophosphorylation in cancer cell lines; conditions: background statement, no values; cited from earlier work
[2] = target: DNA-dependent protein kinase (DNA-PK) (Homo sapiens, UniProt P78527); conditions: background statement, no values; cited from earlier work
[3] = Solubility measurements in biorelevant media (24 h shake, HPLC); assay type: physicochemical
[4] = Thermal behaviour by DSC and TGA; assay type: physicochemical; conditions: DSC and TGA profiles
Description: By contrast, the amorphous material decomposes at 170° C. (FIG. 2). The crystalline material therefore lends itself to further processing that involves high temperatures, such as hot melt extrusion and melt granulation.
• Powder X-ray diffractions (XRPD) were obtained by standard techniques as described in the European Pharmacopeia 7th Edition chapter 2.9.33 (Cu-Kai radiation, λ=1.5406 Å, Stoe StadiP 611 KL transmission diffractometer, ambient temperature); and in particular • For the amorphous form: The XRPD measurement was performed in transmission geometry with Cu-Kα1 radiation on a Stoe StadiP 611 diffractometer equipped with Mythen1K Si-strip detector (PSD). Approximately 5-20 mg of the sample were prepared on a combinatorial 96-well-plate sample holder comprising a mostly amorphous Kapton® foil on the bottom of the wells. Measurement was carried out by setting following parameters: • angular range: −36°−36 °2θ folded to 0-36 °2θ • angular resolution: 0.03 °2θ • PSD step with: 4 °2θ • measurement time: 30 s/PSD-step • generator settings: 40 mA, 40 kV • For the crystalline Form I: The measurement was performed in transmission geometry with Cu-Kα1 radiation on a Stoe StadiP 611 diffractometer equipped with Mythen1K Si-strip detector (PSD). Approximately 10-100 mg of the sample were prepared between amorphous films. […]

[5] = Water vapour sorption isotherm (DVS, 25° C.); assay type: physicochemical; conditions: for water uptake / hygroscopic behaviour (in words): water vapour sorption isotherm, FIG. 3
Source text: Form I can therefore be classified acc. to Ph. Eur. Criteria (section 5.11.) as not hygroscopic. The max. water uptake level (Δmmax at 98% rh) of Form I is <1% m/m. […] This non-hygroscpopic behaviour of Form I is advantageous both in case of using the material as a starting material, as it readily lends itself to storage, as well as using it “as is” in a pharmaceutical dosage form.
• Powder X-ray diffractions (XRPD) were obtained by standard techniques as described in the European Pharmacopeia 7th Edition chapter 2.9.33 (Cu-Kai radiation, λ=1.5406 Å, Stoe StadiP 611 KL transmission diffractometer, ambient temperature); and in particular • For the amorphous form: The XRPD measurement was performed in transmission geometry with Cu-Kα1 radiation on a Stoe StadiP 611 diffractometer equipped with Mythen1K Si-strip detector (PSD). Approximately 5-20 mg of the sample were prepared on a combinatorial 96-well-plate sample holder comprising a mostly amorphous Kapton® foil on the bottom of the wells. Measurement was carried out by setting following parameters: • angular range: −36°−36 °2θ folded to 0-36 °2θ • angular resolution: 0.03 °2θ • PSD step with: 4 °2θ • measurement time: 30 s/PSD-step • generator settings: 40 mA, 40 kV • For the crystalline Form I: The measurement was performed in transmission geometry with Cu-Kα1 radiation on a Stoe StadiP 611 diffractometer equipped with Mythen1K Si-strip detector (PSD). Approximately 10-100 mg of the sample were prepared between amorphous films. Measurement was carried out by setting following parameters: • angular range: 1°-41 °2θ • angular resolution: 0.015 °2θ • PSD step with: 0.49 °2θ • measurement time: 15 s/PSD-step • generator settings: 40 mA, 40 kV • DSC: • For the amorphous form: • Temperature modulated DSC (TOPEM®) was acquired on a Mettler-Toledo heat-flux Differential Scanning Calorimeter DSC 1 system. Approximately 0.5 mg sample amount were weighed accurately in a 40 μl Aluminium pan which was hermetically closed by a lid. The scan was carried out from 0° C. to 250° C. with a linear heating rate of 2 K/min, overlapped by a non-linear puls-modulated temperature programme with a pulse height of ±0.5 K and a stochastic pulse width from 15 s (min) to 45 s (max). Nitrogen purge gas at 50 mL/min was used. • For crystalline Form I: • DSC measurement was acquired on Mettler-Toledo heat-flux Differential Scanning Calorimeter system DSC 821e. Approximately 1-5 mg sample amount were weighed accurately in a 40 μl Aluminium pan with pierced lid. The scan was carried out from 25° C. to 350° C. with a linear heating rate of 5 K/min and a nitrogen purge gas at 50 mL/min. • TGA: • Sample was investigated on a Mettler-Toledo Thermogravimetric Analyser TGA 851 with autosampler, using a nitrogen inert gas atmosphere (flow 50 mL/min). Approximately 5-20 mg sample amount were weighed accurately in a 100 μl Aluminium pan and hermetically closed by Aluminium lids. Just before insertion to the oven the lid was pierced by a needle of the autosampler system. Scans were carried out from 25° C. to 350° C. at 5 K/min. The result was baseline-corrected with a blank run from an empty 100 μl Aluminium pan of the same type, using the identical temperature profile. • Water Vapour Sorption Isotherm: • Approximately 1-40 mg sample amount were weighed accurately into a 100 μl Al pan and hung into the sample position of the DVS instrument with microbalance and incubator (DVS-Intrinsic; Surface Measurement Systems, SMS). […]

Compound | inhibition of DNA-PK autophosphorylation (in words) [1] | inhibition of DNA-PK activity (in words) [2] | solubility at 24 h ([3]; FaSSIF (fasted state simulated intestinal fluid), pH 6.5, thermodynamic from solid, FaSSIF, pH of medium 6.5, 37 °C) [µg/mL] | solubility at 24 h ([3]; FeSSIF (fed state simulated intestinal fluid), pH 5, thermodynamic from solid, FeSSIF, pH of medium 5.0, 37 °C) [µg/mL] | solubility at 24 h ([3]; SGF (simulated gastric fluid without pepsin), pH 1.2, simulated gastric fluid, thermodynamic from solid, SGF, pH of medium 1.2, 37 °C) [µg/mL] | melting/decomposition temperature (thermal stability) [4] | max. water uptake level (Δmmax at 98% rh) ([5]; 98% rh, 25° C.) [% m/m] | hygroscopicity classification acc. to Ph. Eur. criteria (section 5.11.) ([5]; dm (80% rh−40% rh), 25° C.) | water uptake levels ([5]; relative humidity range 40-80% rh, 25° C.) [% m/m] | water uptake / hygroscopic behaviour (in words) [5] | water uptake / hygroscopic behaviour (in words) ([5]; listed as amorphous solid form)
COc1ccc([C@@H](O)c2cc(-c3ncnc4cc(N5CCOCC5)ccc34)c(F)cc2Cl)nn1 [(S)-[2-chloro-4-fluoro-5-(7-morpholin-4-yl-quinazolin-4-yl)phenyl]-(6-methoxy-pyridazin-3-yl)-methanol] | potent inhibition | potent and selective inhibitor | – | – | – | – | – | – | – | – | –
COc1ccc([C@@H](O)c2cc(-c3ncnc4cc(N5CCOCC5)ccc34)c(F)cc2Cl)nn1 [Form I, (S)-[2-chloro-4-fluoro-5-(7-morpholin-4-yl-quinazolin-4-yl)phenyl]-(6-methoxy-pyridazin-3-yl)-methanol] | – | – | 3 (≈ 6.23 µM) | 17 ± 1 (≈ 35.3 µM) | 891 ± 33 (≈ 1850 µM) | above 200 °C | < 1 | not hygroscopic (dm (80% rh−40% rh)<0.2 wt %: not hygroscopic) | < 1 | – | –
COc1ccc([C@@H](O)c2cc(-c3ncnc4cc(N5CCOCC5)ccc34)c(F)cc2Cl)nn1 [amorphous material, (S)-[2-chloro-4-fluoro-5-(7-morpholin-4-yl-quinazolin-4-yl)phenyl]-(6-methoxy-pyridazin-3-yl)-methanol] | – | – | – | – | – | 170 °C | – | – | – | significant water uptake | hygroscopic
